Results on 45 molecules are retold here after the OPERA property sets (Mansouri et al. 2018).

Details in the first series: not given
With `COC(=O)c1ccccc1`, the boiling point (in general, the temperature at which the vapour pressure of the liquid equals the pressure above it) came to 199 °C; the log10 Koc (L/kg) came out at 2.1; the log10 vapour pressure (mmHg) is -0.42; the melting point (as a rule, the temperature, or range, at which the solid turns liquid) is -15 °C.
As to `Clc1cccnc1`, the boiling point is 148 °C.
The same measure, in the same setting: with `CCCCC(=O)CCC` the figure was 163 °C.
In the case of `Cc1ccc(C(C)(C)C)cc1`, the boiling point turned out to be 190 °C, the melting point was -52 °C and the ready biodegradability entry was “readily biodegradable”.
In turn, `CCC(C)C(C)CC(C)C` (centres undefined) gave a boiling point of 156 °C.
In the case of `O=C1NC(=O)c2c(Cl)c(Cl)c(Cl)c(Cl)c21`, the ready biodegradability entry is on record as “not readily biodegradable”.
`C1CCC2=NCCCN2CC1`: the ready biodegradability result was “not readily biodegradable”.
`CC(C)CNCCO`: the boiling point is 199 °C.
In turn, `C=C(C)c1cccc(C(=C)C)c1` had a boiling point of 231 °C.
Turning to `CCCCc1ccc(C(=O)O)nc1`, the melting point was 97 °C.
Regarding `CCCCCOCCCCC`, the boiling point turned out to be 190 °C, the log10 Koa amounted to 4.8, the log10 vapour pressure (mmHg) is -0.067 and the melting point is -69 °C.
Turning to `CC1COC(Cn2cncn2)(c2ccc(Oc3ccc(Cl)cc3)cc2Cl)O1` (centres undefined), the log10 vapour pressure (mmHg) was -9.6 and the melting point stood at 76 °C.
Regarding `CCCCCCCCC=CCCCCCCCC(=O)N(C)CCS(=O)(=O)[O][Na]`, the ready biodegradability result was “readily biodegradable”.
The molecule `CC12CCC(CC1=NO)C2(C)C` (centres undefined) yielded a melting point of 118 °C.
The molecule `C[C@@H](S)C(=O)O` displayed a melting point of 12 °C.
On to `Brc1cccc(Oc2ccccc2)c1`, for which the log10 Koa stood at 7.36.
`CCOC(=O)CC(C)=O`: the boiling point came out at 181 °C, the log10 vapour pressure (mmHg) was -0.108 and the melting point was -45 °C.
`CCCCCCC=CCC(=O)O`: the melting point was found to be 18 °C.
`O=C(O)C1CCC1`: the boiling point was 190 °C and the melting point was -2 °C.
`COc1ccc2c(c1)[nH]c1c(C)nccc12` returned a melting point of 273 °C.
In turn, `CC1(C)CCCCC1O` (centres undefined) returned a boiling point of 177 °C and a melting point of 8 °C.
`NC(=O)N(CCO)/N=C/c1ccc([N+](=O)[O-])o1` yielded a melting point of 214 °C.
For `CN(CC(=O)O)N=O`, the melting point came out at 66.5 °C.
In turn, `O=[N+]([O-])c1ccccc1Br` displayed a boiling point of 258 °C and a melting point of 43 °C.
`O=C1CCCC(=O)N1` gave a melting point of 156 °C.
For the molecule `CCCCOc1ccc(C(=O)OCCN(CC)CC)cc1`, the melting point was found to be 146 °C.
Take `CC(=O)N(CC(C)C(=O)O)c1c(I)cc(I)c(N)c1I` (centres undefined): the melting point worked out at 224 °C.
As for `FC(F)(F)C(Cl)=C(Cl)Cl`, the boiling point is 88.1 °C.
As to `BrC(c1ccccc1)c1ccccc1`, the melting point was 45 °C.
For the molecule `OCc1ccncc1`, the melting point is 53 °C.
On to `C[C@H](CCC(=O)O)[C@H]1CC[C@H]2[C@@H]3CCC4CCCC[C@]4(C)[C@H]3CC[C@]12C` (some centres undefined), for which the melting point stood at 164 °C.
In the case of `O=C1OC(=O)c2c(F)c(F)c(F)c(F)c21`, the melting point came to 95 °C.
In turn, `O=C(O)c1cc([N+](=O)[O-])ccc1O` came in with a melting point of 230 °C.
As to `O=[N+]([O-])c1c(Cl)c(Cl)c(Cl)c(Cl)c1Cl`, the boiling point was determined as 328 °C, the log10 Koc (L/kg) was 3.98, the log10 vapour pressure (mmHg) is -4.3 and the melting point turned out to be 144 °C. In addition, the ready biodegradability result was “not readily biodegradable”.
For the molecule `CNc1ccc(NC)c2c1C(=O)c1ccccc1C2=O`, the log10 vapour pressure (mmHg) is -10.7 and the melting point came out at 220 °C.
In turn, `Brc1ccc2c3c(cccc13)CC2` displayed a boiling point of 335 °C and a melting point of 52 °C.
In the case of `O=P(O)(c1ccccc1)c1ccccc1`, the melting point is 194 °C.
In the case of `C=CCl`, the boiling point was -13.3 °C, the log10 Henry constant (atm·m³/mol) is -1.56, the log10 vapour pressure (mmHg) stood at 3.47 and the melting point was -154 °C.
`CCCC(Cl)Cl`: the boiling point was determined as 114 °C and the log10 vapour pressure (mmHg) came out at 1.36.
For `O=Nc1ccc(Nc2ccccc2)cc1`, the boiling point turned out to be 292 °C, the melting point stood at 143 °C and the ready biodegradability result is “not readily biodegradable”.
`CCOc1ccccc1C(N)=O` gave a melting point of 133 °C.
On to `CC(Oc1ccccc1Cl)C(=O)O` (centres undefined), for which the melting point worked out at 114 °C.
Consider `CC(=O)CCCCBr`, for which the boiling point came out at 216 °C.
For the molecule `O=C1c2ccccc2C(=O)C1c1ccc(Br)cc1`, the melting point turned out to be 138 °C.
Regarding `CC(=O)Oc1ccc(OC(C)=O)c(OC(C)=O)c1`, the boiling point came out at 300 °C.

The same series, now with this note: fish.
`Cc1ccc(C(C)(C)C)cc1` displayed a log10 biotransformation half-life (days) of 0.31.
Consider `O=[N+]([O-])c1c(Cl)c(Cl)c(Cl)c(Cl)c1Cl`, for which the log10 BCF was 2.74 and the log10 biotransformation half-life (days) was -0.17.
